Measured values from patent US20250206754A1, “PAN-CHEMOKINE ANTAGONISTS FOR USE IN TREATING CANCER AND IMMUNE DISORDERS” ("Micar Innovation" LTD., priority 2022, published 2025).

Assays:
[1] = target: T1, CCR1 (Homo sapiens, UniProt P32246); experiment: β-arrestin selectivity assay, CCR1; format: cell-based
T1 sequence (P32246 1-355): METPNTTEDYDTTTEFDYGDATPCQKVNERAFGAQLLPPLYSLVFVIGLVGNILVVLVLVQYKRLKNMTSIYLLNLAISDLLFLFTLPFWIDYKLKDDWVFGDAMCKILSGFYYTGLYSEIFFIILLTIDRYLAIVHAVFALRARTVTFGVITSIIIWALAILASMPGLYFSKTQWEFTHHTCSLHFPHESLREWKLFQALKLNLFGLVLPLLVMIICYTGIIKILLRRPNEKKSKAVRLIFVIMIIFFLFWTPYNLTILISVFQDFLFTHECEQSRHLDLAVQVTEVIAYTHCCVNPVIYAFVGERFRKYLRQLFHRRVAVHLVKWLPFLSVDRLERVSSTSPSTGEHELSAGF

[2] = target: CCR2 (Homo sapiens, UniProt P41597); experiment: β-arrestin selectivity assay, CCR2; format: cell-based
[3] = target: T2, CCR5 (Homo sapiens, UniProt P51681); experiment: β-arrestin selectivity assay, CCR5; format: cell-based
[4] = target: T2, CCR5; experiment: Ca^2+ mobilization assay, CCR5; format: cell-based
Method: (§1) The Kb values are also retrieved. […] Finally, to make it more clear the second messenger output for Hit1 and confirm the nature of β-arrestin bias GTPγS and ERK assays were also performed. […] Considering that the ERK is directly related to β-arrestin path and binds directly to the arrestin it was concluded that this compound is β-arrestin biased (Table 1 and FIGS. 3A and 3B). Finally, several other potential hits were identified but the activities were in a range of 25-35% at 100 μM concentration and they were discarded in this disclosure.

[5] = target: T3, CCR9 (Homo sapiens, UniProt P51686); experiment: Ca^2+ mobilization assay, CCR9; format: cell-based
T3 sequence (P51686 1-369): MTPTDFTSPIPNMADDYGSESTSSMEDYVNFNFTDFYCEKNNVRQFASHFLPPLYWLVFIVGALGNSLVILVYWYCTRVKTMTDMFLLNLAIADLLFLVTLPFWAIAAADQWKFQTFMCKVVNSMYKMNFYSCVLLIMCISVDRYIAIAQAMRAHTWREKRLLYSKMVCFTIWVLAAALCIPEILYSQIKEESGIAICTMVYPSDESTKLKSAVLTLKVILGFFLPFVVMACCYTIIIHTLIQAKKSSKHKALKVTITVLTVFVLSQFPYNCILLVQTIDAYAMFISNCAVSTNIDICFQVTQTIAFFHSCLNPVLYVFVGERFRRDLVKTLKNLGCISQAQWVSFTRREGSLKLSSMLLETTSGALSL
Method: as §1

[6] = target: T4, CCR7 (Homo sapiens, UniProt P32248); experiment: ERK assay, CCR7; format: cell-based
T4 construct: expressed in transfected cells
T4 sequence (P32248 25-378): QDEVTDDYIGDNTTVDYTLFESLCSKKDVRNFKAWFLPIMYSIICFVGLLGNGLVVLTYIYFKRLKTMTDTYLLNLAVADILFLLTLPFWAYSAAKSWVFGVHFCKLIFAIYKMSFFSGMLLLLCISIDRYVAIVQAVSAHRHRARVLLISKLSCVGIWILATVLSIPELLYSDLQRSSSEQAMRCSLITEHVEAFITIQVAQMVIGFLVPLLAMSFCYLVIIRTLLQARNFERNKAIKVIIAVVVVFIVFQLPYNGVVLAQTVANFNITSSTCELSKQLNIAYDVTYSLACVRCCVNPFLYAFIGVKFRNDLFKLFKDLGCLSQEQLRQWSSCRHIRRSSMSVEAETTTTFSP
Method: as §1
Current diversity data provide also several additional experimental evidences which are against colloid aggregation activity dependence: • Almost identical steep dose-response curves have been observed for the natural CCL19 and CCL21 agonists. Thus, it seems that this is not unique to Hit 1 case. • Hill coefficient of 1.5 in the ERK experiments and no steep slope (FIG. 3A). Moreover, the ERK dose-response curve looks like a typical single antagonist ligand. • At the same conditions as in the ERK assay the compound was in particular not active in the GTPγS assay up to 100 μM (FIG. 3B). […]

[7] = tested on: β-lactamase; experiment: β-lactamase enzymatic activity counterscreen (colloid aggregation); format: biochemical; conditions: 50 μM
Method: To examine the colloid aggregation possibility a β-lactamase enzymatic activity counterscreen assay was performed, which is the commonly adopted tool for detection of such properties of the compounds.

[8] = tested on: IL17 release; experiment: Inhibition of IL17 release (inflammation model); conditions: Homo sapiens, read-out: EC50, IL17 release

T2 sequence (P51681 whole entry): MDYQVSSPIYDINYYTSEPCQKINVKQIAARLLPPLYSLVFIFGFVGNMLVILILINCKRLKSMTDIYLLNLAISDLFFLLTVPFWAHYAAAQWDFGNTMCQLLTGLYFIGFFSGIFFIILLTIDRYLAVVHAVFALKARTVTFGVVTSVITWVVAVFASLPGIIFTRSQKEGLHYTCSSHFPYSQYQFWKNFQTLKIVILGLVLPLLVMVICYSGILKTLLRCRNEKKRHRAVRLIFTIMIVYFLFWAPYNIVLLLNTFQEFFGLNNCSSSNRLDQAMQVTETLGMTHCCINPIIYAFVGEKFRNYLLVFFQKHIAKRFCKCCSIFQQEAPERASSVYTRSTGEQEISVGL
Chain of CCR2 (P41597 whole entry): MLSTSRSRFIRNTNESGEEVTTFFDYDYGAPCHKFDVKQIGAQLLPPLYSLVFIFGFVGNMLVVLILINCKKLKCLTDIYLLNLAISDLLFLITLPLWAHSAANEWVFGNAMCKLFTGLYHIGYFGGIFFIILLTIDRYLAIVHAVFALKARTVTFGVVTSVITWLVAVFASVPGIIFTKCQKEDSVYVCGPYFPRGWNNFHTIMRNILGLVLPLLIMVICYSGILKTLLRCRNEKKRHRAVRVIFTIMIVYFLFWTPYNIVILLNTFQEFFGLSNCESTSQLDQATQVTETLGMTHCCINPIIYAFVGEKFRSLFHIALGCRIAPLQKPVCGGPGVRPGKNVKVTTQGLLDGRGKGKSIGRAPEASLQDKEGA

NC(=O)c1ccccc1Oc1ncnc2sc(-c3ccccc3)cc12 [Hit 1, 2-({6-phenylthieno[2,3-d]pyrimidin-4-yl}oxy)benzamide]
Hill coefficient [1]: 2.3 | IC50 [1]: 13.6 µM | Hill coefficient [2]: 3.1 | IC50 [2]: 2600 nM | Hill coefficient [3]: 1.9 | IC50 [3]: 1900 nM | Kb [4]: 10.5 µM | Hill-Slope ([4]; Ca^2+ assay): 1.2 | IC50 ([4]; Ca^2+ mobilization assay): 55 µM | Kb [5]: 5.2 µM | Hill-Slope ([5]; Ca^2+ assay): 0.8 | IC50 ([5]; Ca^2+ mobilization assay): 58 µM | IC50 ([6]; ERK assay): 18.1 µM | Hill coefficient ([6]; ERK experiments): 1.5 | activity on β-lactamase [7]: −18% | EC50 [8]: 3.78 µM
